# Measurements taken from patent US12533417B2, “L-DOPA and/or DOPA decarboxylse inhibitors conjugated to sugar for the treatment of dopamine-responsive disorders” (B. G. Negev Technologies and Applications Ltd., at …, priority 2018, dated 2026).
# Key:
# [1] = Pharmacokinetic of L-DOPA following intravenous administration of L-DOPA and L-DOPAM-2 to mice; format: in vivo; conditions: for L-DOPA in the plasma: equivalent to 80 mg/kg L-DOPA, 4 and 8 hours after injection, no DOPA decarboxylase inhibitor
# Procedure: In order to analyze the stability of DOPAM-2 in vivo, mice were injected intravenously with either L-DOPAM-2 or L-DOPA, where in either case, an equimolar dose of L-DOPA was administered (equivalent to 80 mg/kg L-DOPA). Mice were sacrificed 30, 60, 120, 240, and 480 minutes after the injection of the tested drug, blood was collected and plasma obtained by centrifugation. L-DOPA concentration was determined by LC-MS. 3 mice were tested per each time point, and each point on the graph represents mean±SEM.
# [2] = Stability of L-DOPAM in serum, LC-MS peak areas (Example 4); format: in vitro ADME, human; conditions: for Area L-DOPA (LC-MS peak area) / Area L-DOPAM (LC-MS peak area) / Area Mannitol (LC-MS peak area): L-DOPAM 2 mg/ml in serum, 36° C.
# Procedure: (§1) The stability of one molecule of L-DOPA and one Mannitol (L-DOPAM-1, M.W. 361) in serum was evaluated according to the following procedure: • 1. A solution of 2 mg L-DOPAM in lml of serum was prepared; • 2. A 200 μl aliquot was immediately withdrawn from that solution; • 3. 180 μl of TCA (trichloroacetic acid) 0.6N solution was added; • 4. The obtained mixture was centrifuged (5,000 rpm, 15 min., 40° C.); • 5. The supernatant was filtrated through 0.22 μm filter; • 6. The filtrate was diluted 20 times and injected into Liquid chromatography-mass spectrometry (LC-MS) (column: LUNA 3u C18 (2) 100A; 150×1.0 mm). The eluents were A=Acetonitrile, B=H2O+0.1% Acetic Acid. The following LC gradient was used: […]
# The L-DOPAM solution in serum was stored at 36° C. Steps 2-6 were repeated after 2, 4, 23 and 46.5 hours.
# The areas of the L-DOPAM, L-DOPA and Mannitol peaks were determined by extraction of only the ions of interest (FIGS. 3-7). The L-DOPA metabolite dopamine was not detected.
# In order to semi-quantitatively determine the stability of L-DOPAM, the ratio of the peak areas of L-DOPA versus L-DOPAM and Mannitol versus L-DOPAM was calculated. An increase of the ratio of L-DOPA and Mannitol over time indicates the breakdown of L-DOPAM in serum.
# [3] = Release of L-DOPA from L-DOPAM-1 and L-DOPAM-4 in human serum in vitro (Example 5); format: in vitro ADME; conditions: 37° C., L-DOPA concentration by LC-MS (FIG. 13)
# Procedure: as §1
# The stability of one molecule of L-DOPA and one of mannitol (L-DOPAM-1), and of four molecules of L-DOPA and one of mannitol (L-DOPAM-4) in serum was evaluated by the method disclosed in Example 4. L-DOPAM-1 and L-DOPAM-4 were added into human serum and incubated at 37° C. Samples were taken at various times after the addition of the drugs to the serum and L-DOPA concentration was determined by LC-MS.
# [4] = L-DOPA concentration in human serum after adding DOPAM, HPLC-MS with internal standard; format: in vitro ADME
# Procedure: HPLC-MS area under the curve were examined after addition of various L-DOPA concentrations to serum (FIG. 10). […] DOPAM was added to human serum in vitro, and L-DOPA concentrations in serum at various timepoints were determined by HPLC-MS and quantified using an internal standard. DOPAM released L-DOPA continuously over at least 24 hours (FIG. 12). The concentration of L-DOPA in serum increased in a linear fashion during the first 6 hours after adding DOPAM to the serum, after which L-DOPA concentration continued to increase through the final time point examined in this experiment (24 hours after DOPAM addition; FIG. 12).
structure (smiles),measurement,setting,value
NC(Cc1ccc(O)c(O)c1)C(=O)OCC(OC(=O)C(N)Cc1ccc(O)c(O)c1)C(O)C(O)C(O)CO (centres unmarked) [DOPAM-2],L-DOPA in the plasma,[1],significant levels of L-DOPA
same,plasma concentrations of L-DOPA compared with mice injected with L-DOPA,"[1]; equivalent to 80 mg/kg L-DOPA, 60, 120, 240, and 480 minutes after injection",higher
NC(Cc1ccc(O)c(O)c1)C(=O)OC(CO)C(O)C(O)C(O)CO [L-DOPAM-1],L-DOPAM detection in serum,[2]; 46 h after exposure of L-DOPAM to serum,still detected
same,Area L-DOPA (LC-MS peak area),[2]; time 0 h,1019288083
same,Area L-DOPAM (LC-MS peak area),[2]; time 0 h,4065363001
same,Area Mannitol (LC-MS peak area),[2]; time 0 h,60908307
same,Area L-DOPA (LC-MS peak area),[2]; time 2 h,2345301782
same,Area L-DOPAM (LC-MS peak area),[2]; time 2 h,3292402130
same,Area Mannitol (LC-MS peak area),[2]; time 2 h,65437168
same,Area L-DOPA (LC-MS peak area),[2]; time 4 h,2632498093
same,Area L-DOPAM (LC-MS peak area),[2]; time 4 h,2146859775
same,Area Mannitol (LC-MS peak area),[2]; time 4 h,97930402
same,Area L-DOPA (LC-MS peak area),[2]; time 23 h,1539342894
same,Area L-DOPAM (LC-MS peak area),[2]; time 23 h,498391022
same,Area Mannitol (LC-MS peak area),[2]; time 23 h,73274763
same,Area L-DOPA (LC-MS peak area),[2]; time 46.5 h,26308871
same,Area L-DOPAM (LC-MS peak area),[2]; time 46.5 h,460814075
same,Area Mannitol (LC-MS peak area),[2]; time 46.5 h,83932712
same,Mannitol levels,[2]; L-DOPAM in serum (FIG. 9),increased over time
same,L-DOPA metabolite dopamine detected,"[2]; L-DOPAM in serum, 0-46.5 h, LC-MS",not detected
same,Ratio L-DOPA/L-DOPAM (peak areas),"[2]; L-DOPAM in serum, time 0 h",0.251
same,Ratio Mannitol/L-DOPAM (peak areas),"[2]; L-DOPAM in serum, time 0 h",0.015
same,Ratio L-DOPA/L-DOPAM (peak areas),"[2]; L-DOPAM in serum, time 2 h",0.712
same,Ratio Mannitol/L-DOPAM (peak areas),"[2]; L-DOPAM in serum, time 2 h",0.020
same,Ratio L-DOPA/L-DOPAM (peak areas),"[2]; L-DOPAM in serum, time 4 h",1.226
same,Ratio Mannitol/L-DOPAM (peak areas),"[2]; L-DOPAM in serum, time 4 h",0.046
same,Ratio L-DOPA/L-DOPAM (peak areas),"[2]; L-DOPAM in serum, time 23 h",3.089
same,Ratio Mannitol/L-DOPAM (peak areas),"[2]; L-DOPAM in serum, time 23 h",0.147
same,Ratio L-DOPA/L-DOPAM (peak areas),"[2]; L-DOPAM in serum, time 46.5 h",0.057
same,Ratio Mannitol/L-DOPAM (peak areas),"[2]; L-DOPAM in serum, time 46.5 h",0.182
same,time up to which L-DOPA levels increased,"[2]; L-DOPAM in serum, sharp decrease at the 46 h time point (FIG. 8)",23 h
same,course of levels after the increase,[3],gradual decrease at 24 and 48 hours
same,time up to which levels increased,[3],8 h
same,time over which L-DOPA was released continuously,"[4]; DOPAM added to human serum in vitro, 37° C. (FIG. 12)",at least 24 hours
same,period of linear increase of L-DOPA concentration in serum,[4]; after adding DOPAM to human serum (FIG. 12),6 h
same,time L-DOPA present in serum,[4],at least 24 hours
NC(Cc1ccc(O)c(O)c1)C(=O)OCC(OC(=O)C(N)Cc1ccc(O)c(O)c1)C(O)C(O)C(COC(=O)C(N)Cc1ccc(O)c(O)c1)OC(=O)C(N)Cc1ccc(O)c(O)c1 [L-DOPAM-4],course of levels after the increase,[3],decreased slightly through the final time point examined after 72 hours
same,time up to which levels increased,[3],24 h
same,time up to which levels increased linearly,[3],5 h
N[C@@H](Cc1ccc(O)c(O)c1)C(=O)O [L-DOPA],L-DOPA in the plasma,[1],no L-DOPA was detected
same,time L-DOPA present in serum,[4],about 2 hours
